Experimental data reported in patent US20230129812A1, “COMPOSITIONS AND METHODS FOR TREATING PULMONARY HYPERTENSION” (Acceleron Pharma Inc., priority 2020, published 2023).

What was measured:
[1] = test system: Sugen Hypoxia model of PAH; test: Sugen Hypoxia rat model of PAH (semaxanib/hypoxia); type: in vivo; details: Sugen Hypoxia rats; for decrease of right heart hypertrophy / reduction of mean pulmonary arterial pressure: day 28, compared to vehicle treated animals; for smooth muscle hypertrophy of pulmonary arterioles, average histopathological score: 0 (normal), 1 (minimal), 2 (mild), 3 (moderate), 4 (marked); for pulmonary arterioles completely muscularized / pulmonary arterioles non-muscularized / pulmonary arterioles partially muscularized: αSMA/elastin staining, 100 arterioles per animal
Procedure: The effects of an ActRIIA-mFc fusion protein (ActRIIA-mFc homodimer as described in Example 1 and sildenafil (a phosphodiesterase-5 inhibitor approved for the treatment of PAH) were further examined the Sugen Hypoxia model of PAH. In this model, rats receive daily doses of semaxanib and are placed in a low oxygen environment (approximately 13% oxygen) to induce PAH 24 hours prior to start of therapy.
Rats were separated into different treatment groups (10 mice per group): 1) treatment with semaxanib (200 mg/kg administered s.c. as a single dose daily)/hypoxia and Tris buffered saline (administered i.p. as 1 ml/kg, every three days) (vehicle treatment group), 2) treatment with an ActRIIA-mFc polypeptide (10 mg/kg administered i.p. every three days) and semaxanib (200 mg/kg administered s.c. as a single dose daily)/hypoxia, 3) treatment with sildenafil (30 mg/kg administered orally twice daily) and semaxanib (200 mg/kg administered s.c. as a single dose daily)/hypoxia, and 4) control rats (Tris buffered saline administered i.p. as 1 ml/kg, every three days). Rats were treated for 28 days. Body weights were recorded prior to first dose on Day 1 and then weekly throughout the study.
(§1) On day 28, rats were anesthetized by an intraperitoneal injection of ketamine/xylazine (80/10 mg/kg). An incision was made in the neck, and a jugular vein was isolated and ligated anteriorly. A fluid-filled pressure catheter was introduced into the right jugular vein to measure pulmonary artery pressure (PAP). Another incision was made in the inguinal region, and femoral artery was isolated and ligated anteriorly. A Millar pressure catheter was introduced into a femoral artery to measure systolic arterial pressure, diastolic pressure, and heart rate. Mean arterial pressure and right PAP were monitored using the Notocord HEM (Croissy sur Seine, Frnace) v3.5 data capture system for approximately 5-10 minutes until stable measurements were obtained. During the measurements, rats were maintained at approximately 37° C. on a heating pad and body temperature was monitored throughout the procedure with a rectal temperature probe. At the conclusion of the procedure, rats were euthanized, and the hearts and lungs were removed. The entire heart was weighed. Next, the atria were removed and the left ventricle with septum (LV+S) was separated from the right ventricle (RV). The ventricles were weighed separately. Hypertrophy was assessed, in part, by calculating RV/LV+S. The lungs were also weighed.
(§2) Similar trends were observed on vessel muscularity based on histopathologic scoring. After staining tissue samples to detect αSMA/elastin, 100 pulmonary arterioles, between 10 m and 50 m in size, per animal were categorized as non-muscularized, partially muscularized, or completely muscularized. Pulmonary arterioles from vehicle treated rats were determined to be 72.5% completely muscularized, 27.4% partially muscularized, and 0.1% non-muscularized. […] Histopathological scoring of smooth muscle hypertrophy of pulmonary arterioles were also recorded as follows: 0 (normal), 1 (minimal), 2 (mild), 3 (moderate), or 4 (marked).

[2] = test system: rat model of pulmonary arterial hypertension (PAH), monocrotaline-induced; test: Monocrotaline (MCT) rat model of pulmonary arterial hypertension; type: in vivo, Sprague Dawley rats; details: MCT rats; for improvement in body weight: 28 days; for improvement in body weight / decrease of right heart hypertrophy / decrease of lung weight / reduction of elevated PAP: compared to monocrotaline treated rats (vehicle); for decrease of right heart hypertrophy / decrease of lung weight / reduction of elevated PAP: day 28; for decrease of right heart hypertrophy: RV/LV+S; for smooth muscle hypertrophy of pulmonary arterioles, average histopathological score: 0 (normal), 1 (minimal), 2 (mild), 3 (moderate), 4 (marked); for pulmonary arterioles completely muscularized / pulmonary arterioles non-muscularized / pulmonary arterioles partially muscularized: αSMA/elastin staining, 100 arterioles per animal
Procedure: The effects of an ActRIIA-mFc fusion protein (ActRIIA-mFc homodimer as described in Example 1), an ALK4-Fc-ActRIIB-Fc heterodimer (as described in Examples 12 and 13), and sildenafil (a phosphodiesterase-5 inhibitor approved for the treatment of PAH) were examined in a rat model of pulmonary arterial hypertension (PAH). In this model, Sprague Dawley rats received a […] injection of monocrotaline (MCT) to induce PAH 24 hours prior to start of therapy.
Rats were separated into different treatment groups (10 mice per group): 1) treatment with MCT (60 mg/kg administered i.p. as a single dose at day 1 of study) and Tris buffered saline (i.p. as 1 ml/kg, every three days) (vehicle treatment group), 2) treatment with an ActRIIA-mFc polypeptide (10 mg/kg administered i.p. every three days) and MCT (60 mg/kg administered i.p. as a single dose at day 1 of study), 3) treatment with an ALK4-Fc:ActRIIB-Fc heterodimer (10 mg/kg administered i.p. every three days) and MCT (60 mg/kg administered i.p. as a single dose at day 1 of study), 4) treatment with sildenafil (30 mg/kg administered orally twice daily) and MCT (60 mg/kg administered i.p. as a single dose at day 1 of study), and 5) control rats (Tris buffered saline administered i.p. as 1 ml/kg, every three days). Rats were treated for 28 days. Body weights were recorded prior to first dose on Day 1 and then weekly throughout the study.
as §1
as §2, with “10 μm” for “10 m”, “be 62.3%” for “be 72.5%”, “muscularized, 36.4%” for “muscularized, 27.4%”, “and 1.4%” for “and 0.1%”

activin B = target: T1, activin B (Homo sapiens, UniProt P09529); test: Biacore ligand affinity of ActRIIB-hFc forms, steady-state affinity fit; type: binding
T1 sequence (P09529 293-407): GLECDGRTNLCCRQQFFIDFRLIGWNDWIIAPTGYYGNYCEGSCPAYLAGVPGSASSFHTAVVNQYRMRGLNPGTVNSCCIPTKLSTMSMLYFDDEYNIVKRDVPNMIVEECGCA
Procedure: (§3) Affinities of several ligands for ActRIIB(25-131)-hFc and its full-length counterpart ActRIIB(20-134)-hFc were evaluated in vitro with a Biacore™ instrument, and the results are summarized in Table 8 below. Kd values were obtained by steady-state affinity fit due to very rapid association and dissociation of the complex, which prevented accurate determination of kon and koff. ActRIIB(25-131)-hFc bound, for example, activin A, activin B, and GDF11 with high affinity.
(§4) The affinity of ActRIIB variants and other ActRIIB-hFc proteins for several ligands was evaluated in vitro with a Biacore™ instrument. Kd values were obtained by steady-state affinity fit due to the very rapid association and dissociation of the complex, which prevented accurate determination of kon and koff.

GDF11 = target: T2, GDF11 (Homo sapiens, UniProt O95390); test: as above; type: binding
T2 sequence (O95390 299-407): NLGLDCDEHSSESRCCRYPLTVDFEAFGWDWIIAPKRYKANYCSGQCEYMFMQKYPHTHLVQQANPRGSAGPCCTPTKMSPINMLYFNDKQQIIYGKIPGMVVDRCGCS
Procedure: as §3, §4

activin A = target: T3, activin A (Homo sapiens, UniProt P08476); test: as above; type: binding
T3 sequence (P08476 311-426): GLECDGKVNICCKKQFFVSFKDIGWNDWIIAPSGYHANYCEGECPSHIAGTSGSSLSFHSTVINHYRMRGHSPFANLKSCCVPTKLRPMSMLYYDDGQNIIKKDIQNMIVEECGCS
Procedure: as §3, §4

[3] = test system: pGL3(CAGA)12 reporter gene expression in A-204 cells; test: A-204 reporter gene assay, stimulation by factors without inhibitors; type: cell-based, human; details: in the absence of any inhibitors
Description: An A-204 reporter gene assay was used to evaluate the effects of ActRIIB-Fc proteins and ActRIIB variant Fc fusion polypeptides on signaling by GDF-11 and activin A. Cell line: human rhabdomyosarcoma (derived from muscle). Reporter vector: pGL3(CAGA)12 (described in Dennler et al, 1998, EMBO 17: 3091-3100). The CAGA12 motif is present in TGF-beta responsive genes (e.g., PAI-1 gene), so this vector is of general use for factors signaling through SMADs.
Day 1: Split A-204 cells into 48-well plate.
Day 2: A-204 cells transfected with 10 ug pGL3(CAGA)12 or pGL3(CAGA)12(10 ug)+pRLCMV (1 pg) and Fugene.
Day 3: Add factors (diluted into medium+0.1% BSA). Inhibitors need to be preincubated with factors for 1 hr before adding to cells. Six hrs later, cells were rinsed with PBS and lysed.
This is followed by a luciferase assay.

| Compound | decrease of right heart hypertrophy [1] [%] | reduction of mean pulmonary arterial pressure [1] [%] | smooth muscle hypertrophy of pulmonary arterioles, average histopathological score [1] | pulmonary arterioles completely muscularized [1] [%] | pulmonary arterioles non-muscularized [1] [%] | pulmonary arterioles partially muscularized [1] [%] | improvement in body weight [2] | decrease of right heart hypertrophy [2] [%] | decrease of lung weight [2] [%] | reduction of elevated PAP [2] [%] | smooth muscle hypertrophy of pulmonary arterioles, average histopathological score [2] | pulmonary arterioles completely muscularized [2] [%] | pulmonary arterioles non-muscularized [2] [%] | pulmonary arterioles partially muscularized [2] [%] | ED50 [3] [ng/mL] | stimulation of reporter gene expression [3] [fold] | other results |
| --- | --- | --- | --- | --- | --- | --- | --- | --- | --- | --- | --- | --- | --- | --- | --- | --- | --- |
| CCCc1nn(C)c2c(=O)[nH]c(-c3cc(S(=O)(=O)N4CCN(C)CC4)ccc3OCC)nc12 [sildenafil, reference compound] | 10 | 22.4 | 3 | 67.4 | 1.0 | 31.6 | did not have any improvement in body weight | 18.5 | 10 | 30 | 3 | 57.9 | 0.9 | 41.6 | – | – | – |
| ActRIIA-mFc: extracellular domain of human ActRIIa fused to a mouse Fc domain with a minimal linker; homodimer | 53.5 | 51.3 | 1.4 | 29.3 | 1.4 | 69.3 | did not show improvement in body weight | 47.1 | 18.4 | 68 | 1.6 | 25.8 | 7.3 | 66.9 | – | – | – |
| ActRIIB(25-131)-hFc: human ActRIIB extracellular domain with N- and C-terminal truncations (residues 25-131) fused to human Fc via three glycines | – | – | – | – | – | – | – | – | – | – | – | – | – | – | – | – | activin B binding (activin B; Biacore): high affinity; Kd (activin B; Table 12, Kd by steady-state affinity fit, read-out: Activin B (Kd e−11)): 0.012 nM; GDF11 binding (GDF11; Biacore): high affinity; Kd (GDF11; Table 12, Kd by steady-state affinity fit, read-out: GDF11 (Kd e−11)): 0.031 nM; activin A binding (activin A; Biacore): high affinity; Kd (activin A; Table 12, Kd by steady-state affinity fit, read-out: Activin A (Kd e−11)): 0.018 nM |
| GDF-11: TGF-beta superfamily ligand added as factor in the A-204 reporter gene assay | – | – | – | – | – | – | – | – | – | – | – | – | – | – | ~1.5 | 16 | – |
| activin A: TGF-beta superfamily ligand added as factor in the A-204 reporter gene assay | – | – | – | – | – | – | – | – | – | – | – | – | – | – | ~2 | 10 | – |
